In brackets after ≈: the same amount, converted by molar mass. Where only a bound is given, the exact number is not on record here.

Test [1] concerns the target T1, Pantothenate synthetase (Mycobacterium tuberculosis, UniProt P9WIL5).
T1 sequence (P9WIL5 whole entry): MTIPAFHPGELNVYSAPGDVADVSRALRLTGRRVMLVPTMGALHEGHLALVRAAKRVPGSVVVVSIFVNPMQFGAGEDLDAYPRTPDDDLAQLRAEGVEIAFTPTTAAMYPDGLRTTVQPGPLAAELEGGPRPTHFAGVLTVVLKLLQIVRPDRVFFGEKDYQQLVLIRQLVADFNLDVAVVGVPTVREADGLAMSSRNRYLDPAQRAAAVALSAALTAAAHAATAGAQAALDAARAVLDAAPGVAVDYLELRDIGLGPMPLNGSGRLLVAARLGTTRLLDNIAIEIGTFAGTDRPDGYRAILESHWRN
The experiment in a line: Inhibition of Mycobacterium tuberculosis Pantothenate synthetase.

Test [2] can be described thus: Inhibition of DNA gyrase.
Test [3] is described as follows: Inhibition of Saccharomyces cerevisiae Hsp90.
In test [4] the target is T2, Virulence sensor histidine kinase PhoQ (Salmonella typhimurium (strain LT2 / SGSC1412 / ATCC 700720), UniProt P0DM80).
T2 sequence (P0DM80 whole entry): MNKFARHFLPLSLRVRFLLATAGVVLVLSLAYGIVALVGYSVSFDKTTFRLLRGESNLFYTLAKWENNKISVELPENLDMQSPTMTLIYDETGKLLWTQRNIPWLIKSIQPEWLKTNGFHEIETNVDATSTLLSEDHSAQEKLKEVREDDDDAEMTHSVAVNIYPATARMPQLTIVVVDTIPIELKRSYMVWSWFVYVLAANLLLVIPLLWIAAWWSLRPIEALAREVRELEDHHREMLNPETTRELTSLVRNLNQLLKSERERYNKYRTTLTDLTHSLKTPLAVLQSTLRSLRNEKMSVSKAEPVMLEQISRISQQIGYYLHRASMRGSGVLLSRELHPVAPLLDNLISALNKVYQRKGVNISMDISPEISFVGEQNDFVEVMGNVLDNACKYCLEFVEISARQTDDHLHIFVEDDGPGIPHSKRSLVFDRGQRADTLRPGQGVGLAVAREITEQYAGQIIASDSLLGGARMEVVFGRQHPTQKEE
Put plainly: Inhibition of Salmonella typhimurium sensor kinase PhoQ. Further details: species or system Salmonella enterica subsp. enterica serovar Typhimurium.

Test [5] can be described thus: Inhibition of Saccharomyces cerevisiae sensor kinase Sln1.
Another test has as its system Haemophilus influenzae. Put plainly: Antimicrobial activity against Haemophilus influenzae after broth microdilution method. Type of test: functional. (In general: Dilution methods test growth across graded concentrations, often in twofold steps.)
Test [6] is described as follows: Inhibition of Escherichia coli ACCase.
The nature of test [7]: Inhibition of bacteria biotin carboxylase.
The test system of another test is Enterococcus sp. The experiment in a line: Antimicrobial activity against Enterococcus. Format: functional.
In a further test the test system is Staphylococcus sp. The experiment in a line: Antimicrobial activity against Staphylococcus. Type of test: functional.
Test [8] can be described thus: Inhibition of EnvZ by strand-transfer assay.
The nature of test [9]: Inhibition of Escherichia coli His6-tagged ParC/ParE expressed in baculovirus-infected Sf9 cells by gel electrophoresis.
Test [10] can be described thus: Inhibition of Staphylococcus sp. APH(3')-3a.
Test [11] addresses T1, Pantothenate synthetase. Put plainly: Binding affinity to Mycobacterium tuberculosis Pantothenate synthetase.

For `COCC(C)(C)C(O)C(=O)NS(=O)(=O)OC[C@H]1O[C@@H](n2cnc3c(N)ncnc32)[C@H](O)[C@@H]1O` (stereo partly specified), at Pantothenate synthetase [1], the Ki – broadly, a dissociation constant, usually derived from enzyme kinetics or from competition with a known ligand – worked out at 300 nM.

Compound `Cc1cc(=O)oc2cc(SCc3n[nH]c4cccc(OCc5ccc(C(C)(C)C)cc5)c34)ccc12` had an MNEC in test [2] of 0.03 µg/mL. Take `C[C@@H]1C[C@H]2O[C@@H]2/C=C\C=C\C(=O)Cc2c(Cl)c(O)cc(O)c2C(=O)O1` [RADICICOL]: the dissociation constant Kd (usually the concentration at which binding is half-saturated) was 19 nM in test [3] and 715000 nM in test [4]. Also, half-maximal inhibition in test [5] (IC50) required 127000 nM. `Nc1ncc2cc(-c3c(Br)cccc3Br)c(N)nc2n1` showed an MIC in the test on Haemophilus influenzae of 0.125 µg/mL (≈ 0.316 µM). In addition, the IC50 (commonly the concentration needed to halve the response being measured) in [6] was less than 5 nM. In [7], `Cc1ccccc1CN(Cc1ccc2c(c1)OCCO2)C(=O)c1cnc(N)o1` displayed an IC50 of 7 nM. For the compound `COC(=O)C1CCCC(NCc2n[nH]c3cccc(OCc4cc(Cl)cc(Cl)c4)c23)C1` (stereo unspecified), the MIC against Enterococcus sp. and with Staphylococcus sp. was 4 µg/mL (≈ 8.65 µM) in each case. The IC50 in test [2] stood at 0.25 µg/mL (≈ 0.541 µM). As to `CO[C@@H]1[C@@H](OC(N)=O)[C@@H](O)[C@H](Oc2ccc3c(O)c(NC(=O)c4ccc(O)c(CC=C(C)C)c4)c(=O)oc3c2C)OC1(C)C` [NOVOBIOCIN], the Kd in test [8] was 120000 nM. Further, in [9], inhibition was half-maximal at 210 nM (IC50). In test [10], `NCCNS(=O)(=O)c1ccc(Cl)c2ccncc12` returned a Ki of 49000 nM.

As to `COCCC(O)C(=O)NS(=O)(=O)OC[C@H]1O[C@@H](n2cnc3c(N)ncnc32)[C@H](O)[C@@H]1O` (stereo partly specified), affinity on Pantothenate synthetase [1] was put at a Ki of 300 nM. In other words, the sub-micromolar range. At Pantothenate synthetase [1], `CC(C)(C)C(=O)C(=O)NS(=O)(=O)OC[C@H]1O[C@@H](n2cnc3c(N)ncnc32)[C@H](O)[C@@H]1O` yielded a Ki of 300 nM. Compound `C[C@H]1CNCCN1S(=O)(=O)c1cccc2cnccc12` came in with a Ki in [10] of 49000 nM. At Pantothenate synthetase [1], `CC(C)(C)C(O)C(=O)NS(=O)(=O)OC[C@H]1O[C@@H](n2cnc3c(N)ncnc32)[C@H](O)[C@@H]1O` (stereo partly specified) gave a Ki of 300 nM. In test [10], `O=S(=O)(c1ccc(Cl)c2ccncc12)N1CCNCC1` showed a Ki of 49000 nM.

`CC(C)(C)[C@@H](N)C(=O)NS(=O)(=O)OC[C@H]1O[C@@H](n2cnc3c(N)ncnc32)[C@H](O)[C@@H]1O` registered a Ki on Pantothenate synthetase [1] of 300 nM. This lies in the sub-micromolar range. Turning to `NCCNS(=O)(=O)c1cccc2cnccc12`, the affinity in test [10] corresponds to a Ki of 49000 nM. Compound `COc1ccc2c(c1)cc(C)n2CC(=O)O` returned a Kd on Pantothenate synthetase [11] of 800000 nM. Take `COc1cccc(OC)c1-c1cc2cnc(N)nc2nc1N`: the MIC in the test on Haemophilus influenzae is 0.125 µg/mL (≈ 0.42 µM). Also, the IC50 in test [6] was found to be 28 nM. For `N=C(N)NCCNS(=O)(=O)c1cccc2cnccc12`, the Ki in test [10] was 49000 nM. For the compound `COc1ccc2c(c1)cc(CNC(=O)c1cc3ccccc3o1)n2CC(=O)O`, at Pantothenate synthetase [11], the Kd was 860 nM.

Source of the values: ChEMBL document CHEMBL2176884, “ATP-binding site of bacterial enzymes as a target for antibacterial drug design” (J Med Chem, 2011).
